Results published in PubChem BioAssay AID248 (DTP/NCI, 2004).
Values joined by “and” are separate entries in the source; they are usually repeats but may differ in a detail not shown here. Equal entries are not always repeated. Toxic doses and inconclusive results are not listed.

System: L1210 leukemia ip in BDF1 mice, survival T/C
Experiment: NCI In Vivo Anticancer Drug Screen. Data for tumor model L1210 Leukemia (intraperitoneal) in B6D2F1 (BDF1) mice
Conditions: endpoint: mean survival time, higher = longer survival
Outline: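 Transplantable tumor model; survival measured in treated vs vehicle control mice. Value = treated/control.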

[1] = dose: 100.0 mg/kg/injection, schedule: Q01DX001 (ip), vehicle: carboxymethylcellulose (CMC)
[2] = dose: 200.0 mg/kg/injection, schedule: Q01DX001 (ip), vehicle: carboxymethylcellulose (CMC)
[3] = dose: 400.0 mg/kg/injection, schedule: Q01DX001 (ip), vehicle: carboxymethylcellulose (CMC)
[4] = dose: 100.0 mg/kg/injection, schedule: Q04DX003 (ip), vehicle: saline with Tween-80
[5] = dose: 200.0 mg/kg/injection, schedule: Q04DX003 (ip), vehicle: saline with Tween-80
[6] = dose: 100.0 mg/kg/injection, schedule: Q04DX002 (ip), vehicle: Klucel (hydroxypropylcellulose) (HPC)
[7] = dose: 25.0 mg/kg/injection, schedule: Q01DX009 (ip), vehicle: Klucel (hydroxypropylcellulose) (HPC)
[8] = dose: 25.0 mg/kg/injection, schedule: Q04DX003 (ip), vehicle: Klucel (hydroxypropylcellulose) (HPC)
[9] = dose: 50.0 mg/kg/injection, schedule: Q01DX009 (ip), vehicle: Klucel (hydroxypropylcellulose) (HPC)
[10] = dose: 50.0 mg/kg/injection, schedule: Q04DX003 (ip), vehicle: Klucel (hydroxypropylcellulose) (HPC)
[11] = dose: 100.0 mg/kg/injection, schedule: Q01DX009 (ip), vehicle: Klucel (hydroxypropylcellulose) (HPC)
[12] = dose: 100.0 mg/kg/injection, schedule: Q04DX003 (ip), vehicle: Klucel (hydroxypropylcellulose) (HPC)
[13] = dose: 100.0 mg/kg/injection, schedule: Q04DX003 (ip), vehicle: saline
[14] = dose: 200.0 mg/kg/injection, schedule: Q04DX003 (ip), vehicle: saline
[15] = dose: 400.0 mg/kg/injection, schedule: Q04DX003 (ip), vehicle: saline
[16] = dose: 50.0 mg/kg/injection, schedule: Q01DX009 (ip), vehicle: other
[17] = dose: 100.0 mg/kg/injection, schedule: Q01DX009 (ip), vehicle: other
[18] = dose: 50.0 mg/kg/injection, schedule: Q01DX001 (ip), vehicle: carboxymethylcellulose (CMC)

CNc1ncnc2c1cnn2C
T/C (dose: 5.0 mg/kg/injection, schedule: Q01DX015 (ip), vehicle: carboxymethylcellulose (CMC)): 88 % of control
T/C (dose: 10.0 mg/kg/injection, schedule: Q01DX015 (ip), vehicle: carboxymethylcellulose (CMC)): 97 % of control
T/C (dose: 20.0 mg/kg/injection, schedule: Q01DX015 (ip), vehicle: carboxymethylcellulose (CMC)): 100 % of control
T/C (dose: 40.0 mg/kg/injection, schedule: Q01DX015 (ip), vehicle: carboxymethylcellulose (CMC)): 93 % of control
T/C (dose: 80.0 mg/kg/injection, schedule: Q01DX015 (ip), vehicle: carboxymethylcellulose (CMC)): 105 % of control
T/C [1]: 101 % of control
T/C [2]: 103 % of control
T/C [3]: 106 % of control

CCN(CC)CCSC(=O)C(O)(c1ccc(C)cc1)c1ccc(C)cc1
T/C (dose: 75.0 mg/kg/injection, schedule: Q01DX001 (ip), vehicle: other): 90 % of control
T/C (dose: 150.0 mg/kg/injection, schedule: Q01DX001 (ip), vehicle: other): 96 % of control

CCOC(=O)C(Nc1ccccc1)C(=O)OCC
T/C [4]: 92 % of control
T/C [5]: 97 % of control
T/C (dose: 400.0 mg/kg/injection, schedule: Q04DX003 (ip), vehicle: saline with Tween-80): 100 % of control

CCCCCCCCCC(CC)(CCCCCCC)CCCCCCCC (configuration not stated)
T/C (dose: 100.0 mg/kg/injection, schedule: Q01DX001 (ip), vehicle: saline with Tween-80): 103 % of control
T/C (dose: 200.0 mg/kg/injection, schedule: Q01DX001 (ip), vehicle: saline with Tween-80): 99 % of control
T/C (dose: 400.0 mg/kg/injection, schedule: Q01DX001 (ip), vehicle: saline with Tween-80): 103 % of control

Clc1ccc([O][Sn]([c]2ccccc2)([c]2ccccc2)[c]2ccccc2)c(-c2ccccc2)c1
T/C (dose: 5.0 mg/kg/injection, schedule: Q01DX001 (ip), vehicle: saline): 90 % of control
T/C (dose: 10.0 mg/kg/injection, schedule: Q01DX001 (ip), vehicle: saline): 96 % of control

C/C(=N\O)c1c[nH]c(=O)[nH]c1=O
T/C [6]: 94 % of control
T/C (dose: 200.0 mg/kg/injection, schedule: Q04DX002 (ip), vehicle: Klucel (hydroxypropylcellulose) (HPC)): 103 % of control

CN(C)CC1C2C=CC(C3CC23)C1CN(C)C (configuration not stated)
T/C [7]: 113 % of control
T/C [8]: 94 % of control
T/C [9]: 107 % of control
T/C [10]: 102 % of control
T/C [11]: 108 % of control
T/C [12]: 94 % of control and 92 % of control
T/C (dose: 200.0 mg/kg/injection, schedule: Q04DX003 (ip), vehicle: Klucel (hydroxypropylcellulose) (HPC)): 89 % of control

CCCCCCOP(=O)(CCCCCC)OCCCCCC
T/C (dose: 13.3 mg/kg/injection, schedule: Q01DX Z (ip), vehicle: methylcellulose (MC)): 96 % of control
T/C (dose: 20.0 mg/kg/injection, schedule: Q01DX Z (ip), vehicle: methylcellulose (MC)): 102 % of control
T/C [7]: 93 % of control
T/C [8]: 94 % of control
T/C (dose: 30.0 mg/kg/injection, schedule: Q01DX Z (ip), vehicle: methylcellulose (MC)): 95 % of control
T/C [9]: 101 % of control
T/C [10]: 89 % of control
T/C [11]: 98 % of control
T/C [12]: 103 % of control

CC(C)N(CCO)CC1C(c2ccccc2)C1c1ccccc1 (configuration not stated)
T/C (dose: 25.0 mg/kg/injection, schedule: Q04DX002 (ip), vehicle: Klucel (hydroxypropylcellulose) (HPC)): 97 % of control
T/C (dose: 50.0 mg/kg/injection, schedule: Q04DX002 (ip), vehicle: Klucel (hydroxypropylcellulose) (HPC)): 100 % of control
T/C [6]: 97 % of control

CN(CCN(C)P(=O)(N1CC1)N1CC1)P(=O)(N1CC1)N1CC1
T/C (dose: 0.62 mg/kg/injection, schedule: Q01DX Z (ip), vehicle: saline): 87 % of control
T/C (dose: 1.25 mg/kg/injection, schedule: Q01DX Z (ip), vehicle: saline): 90 % of control
T/C (dose: 2.5 mg/kg/injection, schedule: Q01DX Z (ip), vehicle: saline): 92 % of control
T/C (dose: 5.0 mg/kg/injection, schedule: Q01DX Z (ip), vehicle: saline): 108 % of control
T/C (dose: 20.0 mg/kg/injection, schedule: Q01DX Z (ip), vehicle: saline): 156 % of control

O=[N+]([O-])c1ccccc1N=Nc1c(O)[nH]c2ccccc12
T/C (dose: 100.0 mg/kg/injection, schedule: Q01DX001 (ip), vehicle: other): 102 % of control
T/C (dose: 200.0 mg/kg/injection, schedule: Q01DX001 (ip), vehicle: other): 98 % of control
T/C (dose: 400.0 mg/kg/injection, schedule: Q01DX001 (ip), vehicle: other): 102 % of control

NC(=O)NC(=O)/C=C\C(=O)O
T/C [9]: 93 % of control
T/C [11]: 98 % of control
T/C (dose: 200.0 mg/kg/injection, schedule: Q01DX009 (ip), vehicle: Klucel (hydroxypropylcellulose) (HPC)): 91 % of control

C1CCC2OCOCC2C1 (configuration not stated)
T/C (dose: 100.0 mg/kg/injection, schedule: Q04DX002 (ip), vehicle: saline with Tween-80): 93 % of control
T/C (dose: 200.0 mg/kg/injection, schedule: Q04DX002 (ip), vehicle: saline with Tween-80): 90 % of control
T/C (dose: 400.0 mg/kg/injection, schedule: Q04DX002 (ip), vehicle: saline with Tween-80): 93 % of control

NCC(=O)NC(CO)C(=O)O (configuration not stated)
T/C (dose: 100.0 mg/kg/injection, schedule: Q01DX009 (ip), vehicle: saline): 106 % of control
T/C [13]: 110 % of control
T/C (dose: 200.0 mg/kg/injection, schedule: Q01DX009 (ip), vehicle: saline): 101 % of control
T/C [14]: 103 % of control
T/C (dose: 400.0 mg/kg/injection, schedule: Q01DX009 (ip), vehicle: saline): 95 % of control
T/C [15]: 100 % of control

CN(Cc1ccc([N+](=O)[O-])cc1)C(=O)Nc1ccc(S(=O)(=O)F)cc1
T/C [13]: 98 % of control
T/C [14]: 101 % of control
T/C [15]: 104 % of control

CCCCCCCCCCCCNC(=O)c1ccccc1O
T/C [16]: 96 % of control
T/C [17]: 91 % of control
T/C (dose: 400.0 mg/kg/injection, schedule: Q01DX009 (ip), vehicle: other): 101 % of control

ClC(Cl)=C(Cl)C(Cl)=C(Cl)Cl
T/C (dose: 3.13 mg/kg/injection, schedule: Q04DX003 (ip), vehicle: Klucel (hydroxypropylcellulose) (HPC)): 98 % of control
T/C (dose: 6.25 mg/kg/injection, schedule: Q04DX003 (ip), vehicle: Klucel (hydroxypropylcellulose) (HPC)): 100 % of control
T/C (dose: 12.5 mg/kg/injection, schedule: Q04DX003 (ip), vehicle: Klucel (hydroxypropylcellulose) (HPC)): 98 % of control
T/C (dose: 100.0 mg/kg/injection, schedule: Q04DX003 (ip), vehicle: carboxymethylcellulose (CMC)): 101 % of control

CCCCCCCCOB(OCCCCCCCC)OCCCCCCCC
T/C [18]: 96 % of control
T/C [1]: 100 % of control
T/C (dose: 100.0 mg/kg/injection, schedule: Q01DX009 (ip), vehicle: saline with Tween-80): 96 % of control
T/C [4]: 98 % of control
T/C [2]: 96 % of control
T/C (dose: 200.0 mg/kg/injection, schedule: Q01DX009 (ip), vehicle: saline with Tween-80): 95 % of control
T/C [5]: 94 % of control
T/C [3]: 100 % of control

Cc1cc([N+](=O)[O-])ccc1NC(=O)C(Br)C(Br)C(=O)O (configuration not stated)
T/C (dose: 25.0 mg/kg/injection, schedule: Q01DX009 (ip), vehicle: other): 101 % of control
T/C [16]: 102 % of control
T/C [17]: 93 % of control and 94 % of control

COc1ccc2c3c1OC1C(OS(=O)(=O)c4ccc(C)cc4)C=CC4C(C2)N(C)CCC341 (configuration not stated)
T/C (dose: 75.0 mg/kg/injection, schedule: Q01DX001 (ip), vehicle: carboxymethylcellulose (CMC)): 100 % of control
T/C (dose: 75.0 mg/kg/injection, schedule: Q01DX001 (ip), vehicle: saline): 101 % of control
T/C (dose: 150.0 mg/kg/injection, schedule: Q01DX001 (ip), vehicle: carboxymethylcellulose (CMC)): 97 % of control
T/C (dose: 150.0 mg/kg/injection, schedule: Q01DX001 (ip), vehicle: saline): 103 % of control
T/C (dose: 300.0 mg/kg/injection, schedule: Q01DX001 (ip), vehicle: carboxymethylcellulose (CMC)): 95 % of control
T/C (dose: 300.0 mg/kg/injection, schedule: Q01DX001 (ip), vehicle: saline): 104 % of control

CC(=S)N1CCCCC1
T/C [18]: 100 % of control
